{"source": "patent US8618082B2", "about": "“Lupeol anti-tumor agent and uses thereof” (Wisconsin Alumni Research Foundation, priority 2004, dated 2013)", "tested_on": "CD-1 mouse skin", "test": "TPA-induced epidermal hyperplasia (hematoxylin and eosin histology)", "type": "in vivo", "protocol": "FIG. 2. Inhibitory effect of Lupeol on TPA-induced hyperplasia in CD-1 mice: 24 and 48 h after treatment, the animals were sacrificed; skin biopsies were processed for hematoxylin and eosin staining. Representative pictures are shown.\nThe effect of topical application of Lupeol on TPA-mediated induction of epidermal hyperplasia was then assessed.\nThe animals were shaved on the dorsal side of the skin, divided into four groups and treated topically on the shaved area with either 0.4 ml vehicle (acetone), or TPA (3.2 nmol/0.4 ml acetone/animal, v/v), or Lupeol (1 or 2 mg/0.2 ml acetone/animal, w/v) followed 30 min later with TPA (3.2 nmol/0.2 ml acetone/animal). Animals were sacrificed at different times point i.e. 6, 12, 24 and 48 h post TPA treatment. The epidermis was separated from the whole skin and homogenized in 0.1 M Tris-HCl buffer (pH 7.2) using a Polytron tissue homogenizer (Brinkmann Instruments, Westbury, N.Y., USA) at 100,000×g supernatant, and microsomal fractions were prepared as described earlier (Katiyar and Mukhtar, 1997). […]\nTo assess the inhibitory effect of pre-application of Lupeol on TPA-induced edema, 1 cm-diameter punches of skin from vehicle-, Lupeol-, TPA- or Lupeol- and TPA-treated mice were removed, made free of fat pads, and weighed immediately. After drying for 24 h at 50° C., the skin punches were reweighed, and the loss of water content was determined. […]", "data": [{"compound": "C=C(C)[C@@H]1CC[C@]2(C)CC[C@]3(C)[C@H](CC[C@@H]4[C@@]5(C)CC[C@H](O)C(C)(C)[C@@H]5CC[C@]43C)[C@@H]12", "note": "[Lupeol, Lup-20(29)-en-3β-ol]", "values": [{"measurement": "epidermal hyperplasia after Lupeol alone", "setting": "Lupeol alone", "value": "did not induce any epidermal hyperplasia"}, {"measurement": "induction of epidermal hyperplasia by TPA", "setting": "topical Lupeol prior to TPA, 24 and 48 h", "value": "resulted in inhibition in the induction of epidermal hyperplasia"}]}]}
